Measurements as given in patent US20160193216A1 (Nimbus Iris, Inc., priority 2012, published 2016).
Where a name gives a salt, the structure may show the parent alone.

Target: T1, IRAK4 (Homo sapiens, UniProt Q9NWZ3)
T1 sequence (Q9NWZ3 1-460): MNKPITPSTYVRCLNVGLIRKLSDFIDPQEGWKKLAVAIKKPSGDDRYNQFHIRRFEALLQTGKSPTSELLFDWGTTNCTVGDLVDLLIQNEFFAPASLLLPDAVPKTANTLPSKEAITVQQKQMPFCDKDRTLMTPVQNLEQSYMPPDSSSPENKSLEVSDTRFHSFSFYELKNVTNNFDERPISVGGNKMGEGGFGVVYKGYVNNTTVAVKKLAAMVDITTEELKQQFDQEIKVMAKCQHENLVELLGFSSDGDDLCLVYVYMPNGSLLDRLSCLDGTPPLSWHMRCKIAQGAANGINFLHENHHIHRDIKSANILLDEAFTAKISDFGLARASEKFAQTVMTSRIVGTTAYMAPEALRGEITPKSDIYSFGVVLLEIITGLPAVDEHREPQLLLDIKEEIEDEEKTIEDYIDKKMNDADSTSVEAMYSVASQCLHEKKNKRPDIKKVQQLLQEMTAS
Experiment: IRAK-4 activity inhibition assay (Caliper)
Format: biochemical
Settings: 37 μM ATP, 3.5 nM IRAK4

IC50, < 5 µM:
CN(C)[C@H]1CC[C@H](Oc2ncnc3sc4c(c23)[C@@H](C[C@@H](O)c2cc[nH]n2)CC4)CC1 [Compound I-98, (R)-2-((R)-4-(((1r,4R)-4-(dimethylamino)cyclohexyl)oxy)-6,7-dihydro-5H-cyclopenta[4,5]thieno[2,3-d]pyrimidin-5-yl)-1-(1H-pyrazol-3-yl)ethanol]
CN(C)[C@H]1CC[C@H](Nc2ncnc3sc4c(c23)[C@@H](CC(N)=O)CC4)CC1 [Compound I-99, 2-[(3R)-12-[[4-(dimethylamino)cyclohexyl]amino]-7-thia-9,11-diazatricyclo[6.4.0.0[2,6]]dodeca-1(12),2(6),8,10-tetraen-3-yl]acetamide]
CC[C@@H](O)C[C@H]1CCc2sc3ncnc(O[C@H]4CC[C@](CC)(N(C)C)CC4)c3c21 [Compound I-101, (2R)-1-[(3R)-12-[[4-(dimethylamino)-4-ethylcyclohexyl]oxy]-7-thia-9,11-diazatricyclo[6.4.0.0[2,6]]dodeca-1(8),2(6),9,11-tetraen-3-yl]butan-2-ol]
CC[C@]1(N(C)C)CC[C@H](Oc2ncnc3sc4c(c23)[C@@H](C[C@@H](C)O)CC4)CC1 [Compound I-102, (2R)-1-[(3R)-12-[[4-(dimethylamino)-4-ethylcyclohexyl]oxy]-7-thia-9,11-diazatricyclo[6.4.0.0[2,6]]dodeca-1(12),2(6),8,10-tetraen-3-yl]propan-2-ol]
CC[C@H](O)C[C@H]1CCc2sc3ncnc(O[C@H]4CC[C@H](N(C)C)CC4)c3c21 [Compound I-107, (2S)-1-[(3R)-12-[[4-(dimethylamino)cyclohexyl]oxy]-7-thia-9,11-diazatricyclo[6.4.0.0[2,6]]dodeca-1(8),2(6),9,11-tetraen-3-yl]butan-2-ol]
CN(C)[C@H]1CC[C@H](Oc2ncnc3sc4c(c23)C[C@@H](CCO)CC4)CC1 [Compound I-111, 2-[(12S)-3-[[4-(dimethylamino)cyclohexyl]oxy]-8-thia-4,6-diazatricyclo[7.4.0.0[2,7]]trideca-1(9),2(7),3,5-tetraen-12-yl]ethan-1-ol formate]
CN(C)[C@H]1CC[C@H](Oc2ncnc3sc4c(c23)C[C@H](CC(N)=O)CC4)CC1 [Compound I-113, 2-[(12R)-3-[[4-(dimethylamino)cyclohexyl]oxy]-8-thia-4,6-diazatricyclo[7.4.0.0[2,7]]trideca-1(9),2(7),3,5-tetraen-12-yl]acetamide]
CN(CC(=O)N1CCCC1)[C@H]1CC[C@H](Nc2ncnc3sc4c(c23)[C@@H](CCO)CC4)CC1 [Compound I-116, 2-(((1R,4r)-4-(((R)-5-(2-hydroxyethyl)-6,7-dihydro-5H-cyclopenta[4,5]thieno[2,3-d]pyrimidin-4-yl)amino)cyclohexyl)(methyl)amino)-1-(pyrrolidin-1-yl)ethanone]
CC[C@H](C[C@H]1CCc2sc3ncnc(O[C@H]4CC[C@H](N(C)C)CC4)c3c21)OC [Compound I-117, 4-[[(3R)-3-[(2R)-2-methoxybutyl]-7-thia-9,11-diazatricyclo[6.4.0.0[2,6]]dodeca-1(8),2(6),9,11-tetraen-12-yl]oxy]-N,N-dimethylcyclohexan-1-amine]
CC[C@@H](C[C@H]1CCc2sc3ncnc(O[C@H]4CC[C@H](N(C)C)CC4)c3c21)OC [Compound I-119, (1R,4r)-4-(((R)-5-((S)-2-methoxybutyl)-6,7-dihydro-5H-cyclopenta[4,5]thieno[2,3-d]pyrimidin-4-yl)oxy)-N,N-dimethylcyclohexanamine]
NC(=O)C[C@H]1CCc2sc3ncnc(O[C@H]4CC[C@H](N5CCN(Cc6ccccc6)CC5)CC4)c3c21 [Compound I-122, 2-[(3R)-12-[[4-(4-benzylpiperazin-1-yl)cyclohexyl]oxy]-7-thia-9,11-diazatricyclo[6.4.0.0[2,6]]dodeca-1(12),2(6),8,10-tetraen-3-yl]acetamide]
CN(CC(=O)N1CCCC1)[C@H]1CC[C@H](Nc2ncnc3sc4c(c23)[C@@H](CC(N)=O)CC4)CC1 [Compound I-123, 2-[(3R)-12-[(4-[methyl[2-oxo-2-(pyrrolidin-1-yl)ethyl]amino]cyclohexyl)amino]-7-thia-9,11-diazatricyclo[6.4.0.0[2,6]]dodeca-1(8),2(6),9,11-tetraen-3-yl]acetamide]
CN(CCF)[C@H]1CC[C@H](Oc2ncnc3sc4c(c23)[C@@H](CC(N)=O)CC4)CC1 [Compound I-125, 2-((R)-4-(((1r,4R)-4-((2-fluoroethyl)(methyl)amino)cyclohexyl)oxy)-6,7-dihydro-5H-cyclopenta[4,5]thieno[2,3-d]pyrimidin-5-yl)acetamide]
C=C[C@@H](O)C[C@H]1CCc2sc3ncnc(O[C@H]4CC[C@@](N)(CC)CC4)c3c21 [Compound I-126, (2S)-1-[(3R)-12-[(4-amino-4-ethylcyclohexyl)oxy]-7-thia-9,11-diazatricyclo[6.4.0.0[2,6]]dodeca-1(8),2(6),9,11-tetraen-3-yl]but-3-en-2-ol]
CN(C1COC1)[C@H]1CC[C@H](Oc2ncnc3sc4c(c23)[C@@H](CC(N)=O)CC4)CC1 [Compound I-129, 2-((R)-4-(((1r,4R)-4-(methyl(oxetan-3-yl)amino)cyclohexyl)oxy)-6,7-dihydro-5H-cyclopenta[4,5]thieno[2,3-d]pyrimidin-5-yl)acetamide]
COCCN(C)[C@H]1CC[C@H](Oc2ncnc3sc4c(c23)[C@@H](CC(N)=O)CC4)CC1 [Compound I-130, 2-((R)-4-(((1r,4R)-4-((2-methoxyethyl)(methyl)amino)cyclohexyl)oxy)-6,7-dihydro-5H-cyclopenta[4,5]thieno[2,3-d]pyrimidin-5-yl)acetamide]
NC(=O)C[C@H]1CCc2sc3ncnc(O[C@H]4CC[C@H](N5CCNCC5)CC4)c3c21 [Compound I-131, 2-[(3R)-12-[[4-(piperazin-1-yl)cyclohexyl]oxy]-7-thia-9,11-diazatricyclo[6.4.0.0[2,6]]dodeca-1(12),2(6),8,10-tetraen-3-yl]acetamide]
NC(=O)C[C@H]1CCc2sc3ncnc(OC4CCC(NC5COC5)CC4)c3c21 (stereo partly drawn) [Compound I-132, 2-[(3R)-12-([4-[(oxetan-3-yl)amino]cyclohexyl]oxy)-7-thia-9,11-diazatricyclo[6.4.0.0[2,6]]dodeca-1(8),2(6),9,11-tetraen-3-yl]acetamide]
COCCN[C@H]1CC[C@H](Oc2ncnc3sc4c(c23)[C@@H](CC(N)=O)CC4)CC1 [Compound I-133, 2-[(3R)-12-([4-[(2-methoxyethyl)amino]cyclohexyl]oxy)-7-thia-9,11-diazatricyclo[6.4.0.0[2,6]]dodeca-1(12),2(6),8,10-tetraen-3-yl]acetamide]
COCCN(CCOC)[C@H]1CC[C@H](Oc2ncnc3sc4c(c23)[C@@H](CC(N)=O)CC4)CC1 [Compound I-134, 2-[(3R)-12-([4-[bis(2-methoxyethyl)amino]cyclohexyl]oxy)-7-thia-9,11-diazatricyclo[6.4.0.0[2,6]]dodeca-1(12),2(6),8,10-tetraen-3-yl]acetamide]
NC(=O)[C@H](O)C[C@H]1CCc2sc3ncnc(O[C@H]4CC[C@H](N)CC4)c3c21 [Compound I-138, (R)-3-((R)-4-(((1 r,4R)-4-aminocyclohexyl)oxy)-6,7-dihydro-5H-cyclopenta[4,5]thieno[2,3-d]pyrimidin-5-yl)-2-hydroxypropanamide]
CCN[C@H]1CC[C@H](Oc2ncnc3sc4c(c23)[C@@H](C[C@@H](O)C(N)=O)CC4)CC1 [Compound I-139, (2R)-3-[(3R)-12-[[4-(ethylamino)cyclohexyl]oxy]-7-thia-9,11-diazatricyclo[6.4.0.0[2,6]]dodeca-1(8),2(6),9,11-tetraen-3-yl]-2-hydroxypropanamide]

IC50, 5 to 20 µM:
CC[C@]1(N(C)C)CC[C@H](Oc2ncnc3sc4c(c23)[C@@H](C[C@H](C)O)CC4)CC1 [Compound I-103, (2S)-1-[(3R)-12-[[4-(dimethylamino)-4-ethylcyclohexyl]oxy]-7-thia-9,11-diazatricyclo[6.4.0.0[2,6]]dodeca-1(12),2(6),8,10-tetraen-3-yl]propan-2-ol]
CC[C@H](O)C[C@H]1CCc2sc3ncnc(O[C@H]4CC[C@](CC)(N(C)C)CC4)c3c21 [Compound I-104, (2S)-1-[(3R)-12-[[4-(dimethylamino)-4-ethylcyclohexyl]oxy]-7-thia-9,11-diazatricyclo[6.4.0.0[2,6]]dodeca-1(8),2(6),9,11-tetraen-3-yl]butan-2-ol]
C=C[C@H](O)C[C@H]1CCc2sc3ncnc(O[C@H]4CC[C@](CC)(N(C)C)CC4)c3c21 [Compound I-124, (R)-1-((R)-4-(((1r,4R)-4-(dimethylamino)-4-ethylcyclohexyl)oxy)-6,7-dihydro-5H-cyclopenta[4,5]thieno[2,3-d]pyrimidin-5-yl)but-3-en-2-ol]
CN(CC(=O)N1CCCC1)[C@H]1CC[C@H](Nc2ncnc3sc4c(c23)[C@@H](CCC(N)=O)CC4)CC1 [Compound I-127, 3-((S)-4-(((1r,4S)-4-(methyl(2-oxo-2-(pyrrolidin-1-yl)ethyl)amino)cyclohexyl)amino)-6,7-dihydro-5H-cyclopenta[4,5]thieno[2,3-d]pyrimidin-5-yl)propanamide]
